Tests used:
MuSCs = assay: VisionBlue metabolic viability dose-response assay; format: cell-based, mouse; details: dose-response 1-200 ng/ml PGE2
Protocol: Proliferation assays: To assay proliferation, we used three different assays (hemocytometer, VisionBlue, and EdU). For each, we seeded MuSCs on flat hydrogels (hemocytometer and VisionBlue) or collagen-coated plates (EdU assay) at a density of 500 cells per cm^2 surface area. For hemocytometer cell number count, we collected cells at indicated timepoints by incubation with 0.5% trypsin in PBS for 5 min at 37° C. and quantified them using a hemocytometer at least 3 times. Additionally, we used the VisionBlue Quick Cell Viability Fluorometric Assay Kit (BioVision, catalog #K303) as a readout for cell growth in culture. Briefly, we incubated MuSCs with 10% VisionBlue in culture medium for 3 h, and measured fluorescence intensity on a fluorescence plate reader (Infinite M1000 PRO, Tecan) at Ex=530-570 nm, Em=590-620 nm. […] We quantified EdU positive cells using the MetaMorph Image Analysis software (Molecular Devices). Data analyses were blinded, where researchers performing cell scoring were unaware of the treatment condition given to sample groups analyzed.
To assay proliferation, we used three different assays (hemocytometer, VisionBlue, and EdU). […] For hemocytometer cell number count, we collected cells at indicated timepoints by incubation with 0.5% trypsin in PBS for 5 min at 37° C. and quantified them using a hemocytometer at least 3 times. […]

[1] = test system: endogenous MuSCs in tibialis anterior (TA) muscles; assay: BLI of endogenous MuSC expansion after intramuscular bupivacaine/dmPGE2 (Example 4); format: in vivo, mouse
Protocol: Double-transgenic Pax7^CreERT2;Rosa26-LSL-Luc mice were generated by crossing Pax7^CreERT2 mice and Rosa26-LSL-Luc mice obtained from Jackson Laboratory (Stock #005125). These genotypes were validated by appropriate PCR-based strategies. All mice from transgenic and wild-type strains were of young age (2-4 months). All experiments were conducted using age and gender-matched controls. As depicted in the experimental scheme shown in FIG. 23A, mice were treated with five consecutive daily intraperitoneal injections of tamoxifen to activate luciferase expression under the control of the Pax7 promoter. A week after the last tamoxifen injection, the tibialis anterior (TA) muscles were injected intramuscularly with 50 μL of a drug mixture containing 0.125%, 0.25%, or 0.5% bupivacaine (BPV) (Cayman Chemical Cat #16618) and 10 μg 16,16-dimethyl prostaglandin E2 (dmPGE2; Tocris, Catalog #4027) using a 30 gauge needle on a Hamilton syringe. The contralateral TA received 50 μL of a mixture containing 0.5% bupivacaine (BPV) and DMSO vehicle as baseline sham control. Bioluminescence was assayed at days 3, 7, 10 and 14 post-injury.
Bioluminescence imaging (BLI) was performed using a Xenogen-100 system, as previously described. Briefly, mice were anesthetized using isofluorane inhalation and administered 120 μL D-luciferin (0.1 mmol/kg, reconstituted in PBS; Caliper LifeSciences) by intraperitoneal injection. BLI was acquired with between 5-60 second exposure at F-stop=1.0 at 5 minutes after luciferin injection. Digital images were recorded and analyzed using Living Image software (Caliper LifeSciences). Images were analyzed with a consistent region-of-interest (ROI) placed over each hindlimb to calculate a bioluminescence signal. A bioluminescence signal was calculated in radiance (p s^−1 cm^−2 sr^−1) value of 10^4 to define a positive threshold signal over background. BLI imaging was performed bi-weekly for 2 weeks after coinjection of BPV with dmPGE2 or vehicle.
The data in FIGS. 23A-C and 24 are shown as the mean±s.e.m. with n=6 mice. […]

| Structure (SMILES) | lowest drug concentration that promotes a robust MuSC proliferation response (MuSCs) | log fold change in BLI two weeks after injection ([1]; 50 μL into TA, BPV plus 10 μg dmPGE2 compared to BPV/vehicle, dmPGE2 only group) | muscle regeneration vs dmPGE2 dose ([1]; as stated in summary of Example 4) |
| --- | --- | --- | --- |
| CCCCC[C@H](O)/C=C/[C@H]1[C@H](O)CC(=O)[C@@H]1C/C=C\CCCC(=O)O [PGE2, prostaglandin E2] | 10 ng/mL | – | – |
| CCCCC(C)(C)[C@H](O)/C=C/[C@H]1[C@H](O)CC(=O)[C@@H]1C/C=C\CCCC(=O)O [dmPGE2, 16,16-dimethyl prostaglandin E2] | – | No detectable change | more pronounced muscle regeneration |

Source: patent US11738031B2, “Compositions and methods for preventing or treating muscle conditions” (The Board of Trustees of the Leland Stanford Junior …, priority 2017, dated 2023)
